Measured values from patent US8178512B2, “Methods and compositions for treating diseases and disorders associated with siglec-8” (Johns Hopkins University, priority 2004, dated 2012).
Values joined by “and” are separate entries in the source; they are usually repeats but may differ in a detail not shown here. Equal values may be shown once. “Also recorded” adds a separate entry of the source. Read-outs that look alike come from different tables or passages of the source. Blank lines part the entries; values can stand above or below the compound they belong to.

Legend:
Siglec-8-Ig [1] = biological target: T1, Siglec-8-Ig (Homo sapiens, UniProt Q9NYZ4); assay: Siglec-8-Ig binding affinity by surface plasmon resonance (SPR), biotinylated glycosides on streptavidin sensor chip; conditions: for Siglec-8-Ig binding by SPR (in words): LacNAc reference surface; for Siglec-8-Ig binding by SPR (in words) / Kd: SPR; for Kd: 25° C., equilibrium binding, Siglec-8-Ig 0.1-18 uM, read-out: dissociation constant (Kd) of Siglec-8-Ig binding
T1 construct: The extracellular domain of Siglec-8 was inserted in frame with a Factor Xa cleavage site and the Fc portion of human IgG1; made in house; host or cells: CHOEA1 cells (electroporated), purified from supernatants on Protein A Sepharose
Experimental: (§1) The extracellular domain of Siglec-8 was inserted in frame with a Factor Xa cleavage site and the Fc portion of human IgG1, expanded in electroporated CHOEA1 cells, and then purified from supernatants (final concentration: 2.4 mg/ml) using Protein A Sepharose as previously described (Kikly, K. K., Bochner, B. S., Freeman, S., Tan, K. B., Gallagher, K. T., D'Alessio, K., Holmes, S. D., Abrahamson, J., Hopson, C. B., Fischer, E. I., Erickson-Miller, C. L., Tachimoto, H., Schleimer, R. P., and White, J. R. (2000) J. Allergy Clin. Immunol. 105, 1093-1100).
All SPR experiments were performed at 25° C. on a Biacore 3000 instrument (Biacore Inc., Piscataway, N.J.). Biotinylated glycosides were captured on research grade streptavidin (SA) coated sensor chips (Sensor Chip SA, Biacore) that were pre-treated according to the manufacturer's instructions. A solution of each biotinylated glycoside (10 fmol/μl) was injected at 2 μl/min in PBS (pH 7.4) containing 0.005% Tween-20 (running buffer) for varying lengths of time (3-7 minutes) until an optimal amount of glycan was captured on each independent surface. Three related glycosides were studied using one SA sensor chip. […] Increasing concentrations of Siglec-8-Ig (0.1-18 uM) were injected at a flow rate of 60 μl/min over all four surfaces of the sensor chip. […] The equilibrium binding data of Siglec-8-Ig were analyzed by non-linear curve fitting using the BIAevaluation software (Biacore Inc.).
The binding affinities of Siglec-8 for #108, #182 and #181 (FIGS. 3A-C, respectively) were determined on a Biacore B3000 instrument using a streptavidin-coated sensor chip. LacNAc glycoside was captured on one surface of the sensor chip and used as negative control (data not shown).

Siglec-8-Ig [2] = biological target: T1, Siglec-8-Ig; assay: Binding of Siglec-8-Ig to aminoalkyl glycosides immobilized on activated (N-hydroxysuccinimidyl) glass surfaces; conditions: highest concentration tested 300 pmol/spot
Excerpt: A description of the printing and evaluation of the full array in this format has been submitted elsewhere (Ola Blixt, Steve Head, Tony Mondala, Christopher Scanlan, Margaret E. Huflejt, Richard Alvarez, Marian C. Bryan, Fabio Fazio, Daniel Calarese, James Stevens, Nahid Razi, David J. Stevens, John J. Skehel, Irma van Die, Dennis Burton, Ian A. Wilson, Richard Cummings, Nicolai Bovin, Chi-Huey Wong, and James C. Paulson ([…]) Proc. Natl. Acad. Sci. USA 101, 17033-17038). FITC-labeled goat anti-human IgG (Fc specific) was from Jackson Immunoresearch (West Grove, Pa.). […]
A solution of 100 μg/ml Siglec-8-Ig and 50 μg/ml FITC-labeled goat anti-human IgG (Fc-specific) in Dulbecco's PBS containing 0.005% Tween 20 was incubated for 30 min at 37° C. to allow complexes to form. […] An image of the bound fluorescence was obtaining using a microarray scanner (ScanArray Express, PerkinElmer Life Sciences, Boston, Mass.). The integrated spot intensities were determined using Metamorph software (Universal Imaging, Downingtown, Pa.). […]

[3] = biological target: T2, Siglec-8-Ig fusion protein (Homo sapiens, UniProt Q9NYZ4); assay: Glycan array screening: Siglec-8-Ig binding to biotinylated glycosides on streptavidin-coated 384-well plates; conditions: 172 structures screened
T2 construct: The extracellular domain of Siglec-8 was inserted in frame with a Factor Xa cleavage site and the Fc portion of human IgG1; made in house; host or cells: CHOEA1 cells (electroporated), purified from supernatants on Protein A Sepharose
Experimental: as §1
Biotinylated glycosides (Korchagina, E., and Bovina, N. V. (1992) Bioorg Khim 18, 283-298) were coated in replicates of n=3 or n=4 on streptavidin-coated microtiter plates (Pierce Reacti-Bind™ NeutrAvidin™ Coated High Binding Capacity Black 384-Well Plates, Product #15513, Rockford, Ill.). Each well was incubated overnight at 4° C. with 30 pmol/well of glycoside in 25 ul phosphate buffered saline (PBS), pH 7.4. The plates were washed three times with 100 ul PBS using an automated plate washer (Molecular Devices, Sunnyvale, Calif.) and stored sealed at 4° C. in 25 ul/well PBS with 0.1% azide until use. Prior to assay, the plates were washed three times with 100 ul/well wash buffer (20 mM Tris-HCl pH 7.4, 150 mM NaCl, 2 mM CaCl2, 2 mM MgCl2 and 0.05% Tween 20). A stock solution of Siglec-8-Ig (30 ug/ml) was added to each well in 25 ul binding buffer (wash buffer plus 1% BSA) and incubated at room temperature for one hour. The plates were washed three times with 100 ul/well wash buffer and incubated for one hour with 25 ul/well goat anti-human IgG-Alexa 488 (Molecular Probes, Cat. No. A11013, Eugene, Oreg.) at 5 ug/ml in binding buffer. The plates were washed and read in 25 ul wash buffer on a Victor 2™ 1420 Multilabel Counter (PerkinElmer Life Sciences, Fremont, Calif.) at excitation 485/emission 535. The current version of the Consortium glycan array can be viewed at:
(http://www.functionalglycomics.org/static/consortium/resources/resourcecoreh.shtml), experiments were initiated to identify compounds that selectively and specifically bind to Siglec-8. Using Siglec-8-Ig fusion protein, a panel of 172 carbohydrate-based structures (see Table 1) was screened for specific Siglec-8 binding. […] The spacer arm itself, —O(CH2)3NH—CO(CH2)5NH-Biotin, found on many of the other non-binding structures, cannot explain the binding activity for Siglec-8.

Siglec-F = biological target: T3, Siglec-F (Mus musculus, UniProt Q920G3); conditions: Consortium website; cited from earlier work
T3 sequence (Q920G3 17-569): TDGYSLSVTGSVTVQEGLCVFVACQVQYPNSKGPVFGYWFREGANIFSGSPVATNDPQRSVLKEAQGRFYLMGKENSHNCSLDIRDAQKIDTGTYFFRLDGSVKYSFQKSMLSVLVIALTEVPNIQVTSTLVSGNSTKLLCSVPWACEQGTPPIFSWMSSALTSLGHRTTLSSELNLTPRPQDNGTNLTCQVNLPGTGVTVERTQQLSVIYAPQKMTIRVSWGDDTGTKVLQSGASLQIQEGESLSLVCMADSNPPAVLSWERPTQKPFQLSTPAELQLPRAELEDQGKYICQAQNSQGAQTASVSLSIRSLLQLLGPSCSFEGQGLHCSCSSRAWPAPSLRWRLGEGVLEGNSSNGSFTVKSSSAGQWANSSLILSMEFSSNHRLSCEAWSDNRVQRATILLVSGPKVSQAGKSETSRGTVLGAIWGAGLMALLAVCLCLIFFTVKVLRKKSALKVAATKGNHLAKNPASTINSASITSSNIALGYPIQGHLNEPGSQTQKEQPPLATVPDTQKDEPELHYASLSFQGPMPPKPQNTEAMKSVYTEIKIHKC

[4] = test system: Siglec-G-Ig fusion protein; conditions: Consortium website; cited from earlier work

T1 sequence (Q9NYZ4 17-363 limits assumed): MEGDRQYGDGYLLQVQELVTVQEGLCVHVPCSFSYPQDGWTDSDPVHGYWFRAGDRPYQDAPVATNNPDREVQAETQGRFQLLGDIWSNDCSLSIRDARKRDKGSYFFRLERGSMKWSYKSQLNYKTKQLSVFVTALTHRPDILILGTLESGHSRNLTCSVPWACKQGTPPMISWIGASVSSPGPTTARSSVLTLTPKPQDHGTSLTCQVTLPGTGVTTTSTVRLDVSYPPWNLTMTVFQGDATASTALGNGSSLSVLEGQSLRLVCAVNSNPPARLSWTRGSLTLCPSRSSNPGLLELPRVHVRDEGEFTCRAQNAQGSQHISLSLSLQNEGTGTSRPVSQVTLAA
T2 sequence (Q9NYZ4 17-363 limits assumed): as above

Compound: CC(=O)N[C@H]1[C@H](OCCNC(=O)CCCCCNC(=O)CCCCCNC(=O)CCCC[C@@H]2SC[C@@H]3NC(=O)N[C@@H]32)O[C@H](CO)[C@@H](O[C@@H]2O[C@H](CO)[C@H](O)[C@H](O[C@]3(C(=O)O)C[C@H](O)[C@@H](NC(C)=O)[C@H]([C@H](O)[C@H](O)CO)O3)[C@H]2O)[C@@H]1O[C@@H]1O[C@@H](C)[C@@H](O)[C@@H](O)[C@@H]1O [#108, NeuAcα2-3Galβ1-4(Fucα1-3)GlcNAcβ1-O(CH2)2NHCO(CH2)5NHCO(CH2)5NH-Biotin]
- Siglec-8-Ig binding by SPR (in words) (Siglec-8-Ig [1]; listed as sLe^x): failed to support detectable Siglec-8 binding; also recorded: No binding
- Siglec-8 binding to glycan immobilized on glass slide (in words) (Siglec-8-Ig [2]): did not support any Siglec-8 binding
- Siglec-8-Ig binding in glycan array (in words) ([3]; listed as sLe^x): failed to bind

Compound: CC(=O)N[C@H]1[C@H](OCCCNC(=O)CCCCCNC(=O)CCCC[C@@H]2SC[C@@H]3NC(=O)N[C@@H]32)O[C@H](CO)[C@@H](O[C@@H]2O[C@H](COS(=O)(=O)O)[C@H](O)[C@H](O[C@]3(C(=O)O)C[C@H](O)[C@@H](NC(C)=O)[C@H]([C@H](O)[C@H](O)CO)O3)[C@H]2O)[C@@H]1O[C@@H]1O[C@@H](C)[C@@H](O)[C@@H](O)[C@@H]1O [#181, NeuAcα2-3(6-O-sulfo)Galβ1-4(Fucα1-3)GlcNAcβ1-O(CH2)3NH—CO(CH2)5NH-Biotin]
- association and dissociation profiles (in words) (Siglec-8-Ig [1]; SPR sensorgrams): very fast association and dissociation profiles
- Kd (Siglec-8-Ig [1]; listed as 6′-sulfo-sLe^x): 2300 nM and 2200 to 2300 nM
- Kd (Siglec-8-Ig [1]): 2000 to 2500 nM
- Siglec-8-Ig binding by SPR (in words) (Siglec-8-Ig [1]): specific binding
- Siglec-8-Ig binding by SPR (in words) (Siglec-8-Ig [1]; listed as 6′-sulfo-sLe^x): significant binding; also recorded: reproducible binding
- binding to Siglec-F (in words) (Siglec-F): selectively binds
- binding to Siglec-G-Ig fusion protein (in words) [4]: failed to show specific binding
- Siglec-8-Ig binding in glycan array (in words) [3]: stands out among all the others for binding activity; also recorded: By far the greatest binding
- Siglec-8-Ig binding in glycan array (in words) ([3]; listed as 6′-sulfo-sLe^x): avid binding

Compound: CC(=O)N[C@H]1[C@H](OCCCNC(=O)CCCCCNC(=O)CCCC[C@@H]2SC[C@@H]3NC(=O)N[C@@H]32)O[C@H](COS(=O)(=O)O)[C@@H](O[C@@H]2O[C@H](CO)[C@H](O)[C@H](O[C@]3(C(=O)O)C[C@H](O)[C@@H](NC(C)=O)[C@H]([C@H](O)[C@H](O)CO)O3)[C@H]2O)[C@@H]1O[C@@H]1O[C@@H](C)[C@@H](O)[C@@H](O)[C@@H]1O [#182, NeuAcα2-3Galβ1-4(Fucα1-3)(6-O-Su)GlcNAcβ1-O(CH2)3NH—CO(CH2)5NH-Biotin]
- Siglec-8-Ig binding by SPR (in words) (Siglec-8-Ig [1]; listed as 6-sulfo-sLe^x): failed to support detectable Siglec-8 binding; also recorded: No binding
- Siglec-8 binding to glycan immobilized on glass slide (in words) (Siglec-8-Ig [2]): did not support any Siglec-8 binding
- Siglec-8-Ig binding in glycan array (in words) ([3]; listed as 6-sulfo-sLe^x): failed to bind

- Siglec-8-Ig binding by SPR (in words) (Siglec-8-Ig [1]): non-binding
Compound: Galβ1-4GlcNAc [LacNAc, reference compound]
